Measured values published in patent US20200031825A1, “HETEROAROMATIC-FUSED IMIDAZOLYL AMIDES, COMPOSITIONS AND USES THEREOF AS STING AGONISTS” (Trillium Therapeutics Inc., priority 2018, published 2020).
pEC50: −log10 of the molar value. Read-outs that look alike come from different tables or passages of the source.

Tests used:
hSTING-wt = hSTING-wt (Homo sapiens, UniProt Q86WV6); assay: Cellular Functional Assay I: ISRE-SEAP reporter in HEK-293T-Dual Null cells transfected with hSTING-wt; format: cell-based; conditions: for pEC50: HEK-293T-Dual Null, hSTING-wt
hSTING-wt, sequence (Q86WV6 whole entry H232R): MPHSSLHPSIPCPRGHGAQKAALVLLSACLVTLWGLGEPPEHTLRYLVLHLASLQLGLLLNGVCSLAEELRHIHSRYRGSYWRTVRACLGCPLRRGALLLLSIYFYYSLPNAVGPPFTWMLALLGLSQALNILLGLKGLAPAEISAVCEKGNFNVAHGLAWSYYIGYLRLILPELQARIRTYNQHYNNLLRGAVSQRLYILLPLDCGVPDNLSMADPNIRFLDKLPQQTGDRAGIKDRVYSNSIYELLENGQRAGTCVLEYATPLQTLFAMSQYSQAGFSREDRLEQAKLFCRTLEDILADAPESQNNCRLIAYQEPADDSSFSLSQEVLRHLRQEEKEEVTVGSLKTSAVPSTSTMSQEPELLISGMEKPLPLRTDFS

hSTING-H232 = hSTING-H232 (Homo sapiens, UniProt Q86WV6); assay: Cellular Functional Assay I: ISRE-SEAP reporter in HEK-293T-Dual Null cells transfected with hSTING-H232; format: cell-based; conditions: for pEC50: HEK-293T-Dual Null, hSTING-H232
hSTING-H232, sequence (Q86WV6 whole entry): as the sequence (Q86WV6 whole entry H232R) above, with R232H counted along it

mSTING-wt = target: T1, mSTING-wt (Mus musculus, UniProt Q3TBT3); assay: Cellular Functional Assay I: ISRE-SEAP reporter in HEK-293T-Dual Null cells transfected with mouse STING; format: cell-based; conditions: SEAP reporter; for pEC50: HEK-293T-Dual Null, mSTING-wt, read-out: EC50 mSTING-wt
T1 sequence (Q3TBT3 1-378): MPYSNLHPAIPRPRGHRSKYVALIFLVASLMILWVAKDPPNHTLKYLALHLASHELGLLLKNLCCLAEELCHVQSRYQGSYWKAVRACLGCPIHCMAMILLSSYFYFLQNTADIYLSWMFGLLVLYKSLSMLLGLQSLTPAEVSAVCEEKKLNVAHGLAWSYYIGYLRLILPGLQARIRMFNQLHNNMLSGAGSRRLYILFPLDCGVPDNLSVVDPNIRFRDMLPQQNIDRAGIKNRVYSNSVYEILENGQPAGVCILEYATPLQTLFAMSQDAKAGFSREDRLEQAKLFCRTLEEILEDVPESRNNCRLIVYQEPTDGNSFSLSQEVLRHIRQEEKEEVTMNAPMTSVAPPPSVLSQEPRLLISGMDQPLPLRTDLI

hSTING-AQ = target: T2, hSTING-AQ (Homo sapiens, UniProt Q86WV6, G230A/R293Q); assay: Cellular Functional Assay I: ISRE-SEAP reporter, hSTING-AQ allele; format: cell-based
T2 construct: expressed in transfected cells
T2 sequence (Q86WV6 whole entry G230A/H232R/R293Q): as the sequence (Q86WV6 whole entry H232R) above, with G230A, R293Q counted along it

hSTING-HAQ = hSTING-HAQ (Homo sapiens, UniProt Q86WV6, G230A/H232R/R293Q/R71H); assay: Cellular Functional Assay I: ISRE-SEAP reporter in HEK-293T-Dual Null cells transfected with hSTING-HAQ; format: cell-based; conditions: for pEC50: HEK-293T-Dual Null, hSTING-HAQ
hSTING-HAQ, sequence (Q86WV6 whole entry R71H/G230A/H232R/R293Q): as the sequence (Q86WV6 whole entry H232R) above, with R71H, G230A, R293Q counted along it

human PBMCs = assay: Cellular Functional Assay III: IFN-β production from human PBMCs; format: cell-based; conditions: PBMC
Experimental: Frozen human PBMCs (BioIVT Inc.) were thawed first in a 37° C. water bath, then washed with RPMI/10% FBS/2 mM EDTA medium twice before establishing a viable cell count by Trypan Blue. The final cell density for each donor was 5×10^6 cells per well with RPMI/10% FBS medium in a 96 well u-bottom plate.
Human PBMCs were then incubated with testing compounds with indicated concentrations and control for 4 hours at 37° C. in cell culture incubator. After incubation, supernatant was collected and used for measuring induced cytokine level by cytometric bead array analysis.

hSTING-Q = target: T3, hSTING-Q (Homo sapiens, UniProt Q86WV6, R293Q); assay: Cellular Functional Assay I: ISRE-SEAP reporter, hSTING-Q allele; format: cell-based
T3 construct: expressed in transfected cells
T3 sequence (Q86WV6 whole entry R293Q): as the sequence (Q86WV6 whole entry H232R) above, with R232H, R293Q counted along it

[1] = system: mouse dendritic cells (m-DCs); assay: Cellular Functional Assay II: secreted IFN-β from mouse dendritic cells; format: cell-based; conditions: m-DC
Experimental: (§1) Activation of STING in primary cells was determined by measuring levels of secreted IFN-β from human monocyte-derived macrophages (h-MDMs)/dendritic cells (h-DCs) and/or mouse dendritic cells (m-DCs) after treatment with A.
(§2) Human CD14+ cells were first isolated from human peripheral blood mononuclear cells (PBMCs) with Stemcell Easysep Monocyte Isolation™ kit. Human CD14+ cells were kept in conditioned media for 7-12 days to generate h-MDMs and h-DCs before use. After harvesting from C57BL/6 mouse femurs, bone marrow cells were culture in conditioned media for 7 days to generate m-DCs before use.
(§3) The Culture conditions for the various types of cells whereas noted in Table 2:
(§4) 0.5×10^6 cells in 50 ul buffer (50 mM HEPES, pH7.0; 100 mM KCl; 3 mM MgCl2, 0.1 mM DTT; 85 mM Sucrose; 0.2% BSA, 1 mM ATP) in 96-well round bottom plate. Compound (formulated in DMSO) or DMSO (control) were added into each well and the plate incubate at 37° C. for 30 minutes. Cells were washed twice with 100 uL of fresh media and incubated at 37° C. for an additional 6 hours. After 6 hour of incubation, the supernatant was collected and a Cytometry Bead Assay™ (CBA, BioLegend) was used to measure […] levels.

[2] = system: human monocyte-derived macrophages (h-MDMs); assay: Cellular Functional Assay II: secreted IFN-β from human monocyte-derived macrophages; format: cell-based; conditions: h-MDM
Experimental: as §1, §2, §3, §4

[3] = system: human dendritic cells (h-DCs); assay: Cellular Functional Assay II: secreted IFN-β from human dendritic cells; format: cell-based; conditions: h-DC
Experimental: as §1, §2, §3, §4

[4] = system: murine A20 model of B cell lymphoma; assay: In vivo syngeneic A20 mouse tumor model; conditions: Balb/c mice
Experimental: The in vivo efficacy of exemplary compound I(c) was evaluated in a murine A20 model of B cell lymphoma. A20 cells were maintained in RPMI1640/10% FBS. Approximately 4×10^6 A20 cells were injected subcutaneously in 0.1 mL PBS into the right flanks of immunocompetent female Balb/c mice. Tumors were permitted to grow for six days after initial inoculation before the animals were segregated into treatment group. Study groups were treated with 25 μg of B formulated in an appropriate vehicle. Exemplary compound B was dosed intratumorally at the proximal tumor (right flank) on days 6, 8, and 11 of the study. Only animals in good health were used for dosing. Since the effects of the test article on the animals were not known, animals were closely observed for 1 h following dosing and at each tumor measurement time point over the course of the study. Any adverse reactions to the administration of the test material were noted and tabulated. […] Systemic toxicity of the treatments was evaluated by body weight change. Tumor volume was measured every 2 days using standard caliper measurement techniques.

[5] = Donor 1, 4 hours, read-out: Potency (IFN-β production) in Human PBMCs (EC50s) Donor 1
[6] = Donor 2, 4 hours, read-out: Potency (IFN-β production) in Human PBMCs (EC50s) Donor 2
[7] = Donor 3, 4 hours, read-out: Potency (IFN-β production) in Human PBMCs (EC50s) Donor 3
[8] = Donor 4, 4 hours, read-out: Potency (IFN-β production) in Human PBMCs (EC50s) Donor 4
[9] = A20 tumor, 25 μg intratumorally on days 6, 8 and 11

SMILES	pEC50 (hSTING-wt)	pEC50 (hSTING-H232)	pEC50 (mSTING-wt)	pEC50 (hSTING-AQ)	pEC50 (hSTING-HAQ)	pEC50 (human PBMCs; [5])	pEC50 (human PBMCs; [6])	pEC50 (human PBMCs; [7])	pEC50 (human PBMCs; [8])	pEC50 (hSTING-Q)	IFN-β level ([1]; 10 uM)	IFN-β level ([3]; 0.1 uM)	IFN-β level ([3]; 10 uM)	other results
CCn1nc(C)cc1C(=O)Nc1nc2cc(C(N)=O)cnc2n1C/C=C/Cn1c(NC(=O)c2cc(C)nn2CC)nc2cc(C(N)=O)cc(OCCCN3CCOCC3)c21 [Compound T, 3-[(E)-4-[5-carbamoyl-2-[(2-ethyl-5-methyl-pyrazole-3-carbonyl)amino]-7-(3-morpholinopropoxy)benzimidazol-1-yl]but-2-enyl]-2-[(2-ethyl-5-methyl-pyrazole-3-carbonyl)amino]imidazo[4,5-b]pyridine-6-carboxamide]	6.30 to 9.00	6.30 to 9.00	6.30 to 9.00	6.30 to 9.00	6.30 to 9.00	6.30 to 7.00	> 7.00	> 7.00	6.30 to 7.00	6.30 to 9.00	–	–	–	–
CCn1nc(C)cc1C(=O)Nc1nc2cc(C(N)=O)cnc2n1C/C=C/Cn1c(NC(=O)c2cc(C)nn2CC)nc2cc(C(N)=O)cc(OC)c21 [Compound A, 3-[(E)-4-[5-carbamoyl-2-[(2-ethyl-5-methyl-pyrazole-3-carbonyl)amino]-7-methoxy-benzimidazol-1-yl]but-2-enyl]-2-[(2-ethyl-5-methyl-pyrazole-3-carbonyl)amino]imidazo[4,5-b]pyridine-6-carboxamide]	> 9.00	> 9.00	> 9.00	6.30 to 9.00	6.30 to 9.00	–	–	–	–	6.30 to 9.00	>50,000 pg/ml	>5,000 pg/ml	>15,000 pg/ml	IFN-β level ([1]; 0.1 uM): >100 pg/mL; IFN-β level ([1]; 1 uM): >10,000 pg/ml; IFN-β level ([2]; 0.1 uM): >1,000 pg/ml; IFN-β level ([2]; 1 uM): >1,000 pg/ml; IFN-β level ([2]; 10 uM): >1,000 pg/ml
[2H]C1([2H])OC([2H])([2H])C([2H])([2H])N(CCCOc2cc(C(N)=O)cc3nc(NC(=O)c4cc(C)nn4CC)n(C/C=C/Cn4c(NC(=O)c5cc(C)nn5CC)nc5cc(C(N)=O)cnc54)c23)C1([2H])[2H] [Compound W, 3-[(E)-4-[5-carbamoyl-2-[(2-ethyl-5-methyl-pyrazole-3-carbonyl)amino]-7-[3-(2,2,3,3,5,5,6,6-octadeuteriomorpholin-4-yl)propoxy]benzimidazol-1-yl]but-2-enyl]-2-[(2-ethyl-5-methyl-pyrazole-3-carbonyl)amino]imidazo[4,5-b]pyridine-6-carboxamide]	6.30 to 9.00	6.30 to 9.00	6.30 to 9.00	6.30 to 9.00	6.30 to 9.00	6.30 to 7.00	6.30 to 7.00	> 7.00	6.30 to 7.00	6.30 to 9.00	–	–	–	–
Nc1nc2c(ncn2[C@@H]2O[C@@H]3COP(=O)(O)O[C@H]4[C@@H](O)[C@H](n5cnc6c(N)ncnc65)O[C@@H]4COP(=O)(O)O[C@@H]2[C@@H]3O)c(=O)[nH]1 [2′3-cGAMP, reference compound]	–	–	–	–	–	–	–	–	–	–	<3,000 pg/ml	<10 pg/mL	<50 pg/mL	IFN-β level ([1]; 0.1 uM): <300 pg/mL; IFN-β level ([1]; 1 uM): <1,000 pg/ml; IFN-β level ([2]; 0.1 uM): <10 pg/mL; IFN-β level ([2]; 1 uM): <20 pg/mL; IFN-β level ([2]; 10 uM): <50 pg/mL
CCn1nc(C)cc1C(=O)Nc1nc2cc(C(N)=O)cnc2n1C/C=C/Cn1c(NC(=O)c2cc(C)nn2CC)nc2cc(C(N)=O)cc(OCCCN3CCC[C@H]3COC(F)F)c21 [Compound Y, 3-[(E)-4-[5-carbamoyl-7-[3-[(2S)-2-(difluoromethoxymethyl)pyrrolidin-1-yl]propoxy]-2-[(2-ethyl-5-methyl-pyrazole-3-carbonyl)amino]benzimidazol-1-yl]but-2-enyl]-2-[(2-ethyl-5-methyl-pyrazole-3-carbonyl)amino]imidazo[4,5-b]pyridine-6-carboxamide]	> 9.00	> 9.00	6.30 to 9.00	6.30 to 9.00	6.30 to 9.00	> 7.00	> 7.00	> 7.00	> 7.00	6.30 to 9.00	–	–	–	–
CCn1nc(C)cc1C(=O)Nc1nc2cc(C(N)=O)cnc2n1C/C=C/Cn1c(NC(=O)c2cc(C)nn2CC)nc2cc(C(N)=O)cc(C)c21.Cl.Cl.Cl.Cl [Compound B, 3-[(E)-4-[5-carbamoyl-2-[(2-ethyl-5-methyl-pyrazole-3-carbonyl)amino]-7-methyl-benzimidazol-1-yl]but-2-enyl]-2-[(2-ethyl-5-methyl-pyrazole-3-carbonyl)amino]imidazo[4,5-b]pyridine-6-carboxamide Tetrahydrochloride]	> 9.00	> 9.00	6.30 to 9.00	6.30 to 9.00	6.30 to 9.00	–	–	–	–	6.30 to 9.00	>60,000 pg/ml	>800 pg/mL	>1,000 pg/ml	EC50 level, human STING WT (hSTING-wt): pM or nM level; EC50 level, human STING REF (also called H232) (hSTING-H232): pM or nM level; EC50 level, mouse STING (mSTING-wt): pM or nM level; EC50 level, human STING HAQ (hSTING-HAQ): pM or nM level; IFN-β level ([3]; 1 uM): >1,000 pg/ml; dose related toxicity as measured by body weight loss ([4]; 25 μg dose group): no dose related toxicity; animals with complete tumor regression [4, 9]: 80%; tumoricidal effect at the injected tumor [4, 9]: significant tumoricidal properties
CCn1nc(C)cc1C(=O)Nc1nc2cc(C(N)=O)cnc2n1C/C=C/Cn1c(NC(=O)c2cc(C)nn2CC)nc2cc(C(N)=O)cc(OCCCN3CCN(C(C)=O)CC3)c21 [Compound X, 3-[(E)-4-[7-[3-(4-acetylpiperazin-1-yl)propoxy]-5-carbamoyl-2-[(2-ethyl-5-methyl-pyrazole-3-carbonyl)amino]benzimidazol-1-yl]but-2-enyl]-2-[(2-ethyl-5-methyl-pyrazole-3-carbonyl)amino]imidazo[4,5-b]pyridine-6-carboxamide]	6.30 to 9.00	6.30 to 9.00	6.30 to 9.00	6.30 to 9.00	6.30 to 9.00	6.30 to 7.00	6.30 to 7.00	6.30 to 7.00	6.30 to 7.00	6.30 to 9.00	–	–	–	–
CCn1nc(C)cc1C(=O)Nc1nc2cc(C(N)=O)cnc2n1C/C=C/CNC(=O)OC(C)(C)C [Compound D, tert-butyl N-[(E)-4-[6-carbamoyl-2-[(2-ethyl-5-methyl-pyrazole-3-carbonyl)amino]imidazo[4,5-b]pyridin-3-yl]but-2-enyl]carbamate]	< 6.30	< 6.30	< 6.30	< 6.30	< 6.30	–	–	–	–	< 6.30	–	–	–	–
